According to patent US5514821A, “Ring-labeled retinoids and intermediates, and methods for their synthesis and use” (Ligand Pharmaceuticals Incorporated, priority 1994, dated 1996):

Key:
[1] = tested on: RARs and RXRs; test: binding to baculovirus-derived RARs and RXRs (overall finding in words); conditions: RARα,β,γ and RXRα,β,γ; for binding to RARs and RXRs (in words): saturation binding
Text: Exp. Stat. Bull., No. 155 (1987).
[…]. […] […].

[2] = tested on: RARs and RXRs; conditions: Heyman et al., Cell, 68:397 (1992); cited from earlier work

Row | Structure (SMILES) | activity on the retinoid receptors (in words, per Table 1) [1] | binding to RARs and RXRs (in words) ([1]; listed as 9-cis retinoic acid) | binding to RARs and RXRs (in words) ([1]; listed as 9-cis-retinoic acid) | binding to and modulating gene expression via the RARs and RXRs [2] | binding to RARs and RXRs (in words) [1]
1 | CC1=C(/C=C/C(C)=C\C=C\C(C)=C\C(=O)O)C(C)(C)CCC1 [9-cis RA, 9-cis retinoic acid] | active on all six known retinoid receptors | binds to the RARs and RXRs with high affinity in a saturable and specific manner | effectively binds to all six receptors | capable of binding to and modulating gene expression via the RARs and RXRs | –
2 | CC1=C(/C=C/C(C)=C/C=C/C(C)=C/C(=O)O)C(C)(C)CCC1 [ATRA, all-trans retinoic acid] | only active on RARα,β,γ | – | – | – | only binds to the RARs
